In brackets after ≈: the same amount, converted by molar mass. Where two headings read alike, the source gives them in different places.
Key:
Cytotoxicity MTT assay [1] = type: cell-based, human; details: human
Summary of the method: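 HepG2 and HEK293 cells, 1.5 × 10^4 per well in DMEM with 1% FBS, were allowed to attach for 24 h, then exposed 24 h at 37 °C to compounds at 100 µM to 0.046 µM in threefold steps. MTT (0.4 mg mL^−1) was added for 2 h, and formazan in DMSO was read at 570 nm. Viability is given as percent of control, corrected for a positive control.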

[2] = test system: Methicillin-sensitive S. aureus ATCC 29213; test: microbe, parasite or virus in culture; type: cell-based, Staphylococcus aureus; details: for MIC: Staphylococcus aureus, ATCC 29213 / MSSA
Procedure: Antimicrobial activity of compounds was tested against a number of bacterial strains by broth microdilution (BMD) assay with MIC determination, including S. aureus (MSSA ATCC® 29213™, MRSA ATCC® 43300™, VISA NARSA NRS1, VISA NARSA NRS4), Streptococcus pneumoniae (MDR ATCC® 700677™) and Enterococcus faecium (MDR VanA ATCC® 51559™). ATCC strains were sourced from the American Type Culture Collection and NRS strains from NARSA (Network on Antimicrobial Resistance in S. aureus) via BEI Resources (www.beiresources.org). All compounds were prepared to 160 µg mL^−1 solution in water from a stock solution of 1 mM concentration.
[…] […] Standards ranged from 64 to 0.03 µg mL^−1 and compounds from 8 to 0.003 µg mL^−1 with final assay volumes of 100 µL per well. Gram-positive bacteria were cultured in Mueller Hinton broth (MHB) (Bactolaboratories, Cat. no. 211443) at 37 °C overnight. A sample of each culture was then diluted 40-fold in fresh MHB and incubated at 37 °C for 2–3 h. The resultant mid-log phase cultures were added to the compound-containing 96-well plates to give a final cell density of 5 × 10^5 colony forming unit (CFU) mL^−1. All the plates were covered and incubated at 37 °C for 24 h. MICs were the lowest concentration showing no visible growth.

[3] = test system: Vancomycin-resistant S. aureus NARSA VRS4; test: microbe, parasite or virus in culture; type: cell-based, Staphylococcus aureus
Cytotoxicity MTT assay [4] = type: cell-based, human; details: human; remark: listed apart in the source
[5] = test system: Methicillin-resistant S. aureus ATCC 43300; test: microbe, parasite or virus in culture; details: for MIC: Staphylococcus aureus, ATCC43300|MRSA
Summary of the method: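 MICs were determined by broth microdilution in Mueller Hinton broth. Bacteria were pregrown overnight, diluted 40-fold and regrown 2–3 h at 37 °C.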

S. aureus ATCC 43300 = test: Membrane permeability assay (propidium iodide); type: cell-based, Staphylococcus aureus
Procedure: To evaluate the ability of the compounds to disrupt the cytoplasmic membrane integrity, the membrane impermeable fluorescent DNA intercalating dye propidium iodide (PI) was used. Early exponential phase cells were pelleted and washed twice in 10 mM HEPES buffer (pH 7.4) containing 50 µg mL^−1 of CaCl2 and 5 mM glucose, and then re-suspended in the same buffer (4 × 10^8 CFU mL^−1). Cell suspension was added to a 384-well black walled polystyrene plate (Corning, CLS3573) containing compounds, giving a final concentration of 16 µg mL^−1. After 1 h incubation at 37 °C, 5 µg mL^−1 of PI was added and fluorescence was monitored for 90 min using a Tecan Infinite® m1000 Pro Multi-mode reader (excitation/emission 535/620 nm). Data were corrected by subtraction of fluorescence signal arising from untreated cells in the presence of PI. […] Each sample was tested in quadruplicate and independent assays were performed twice showing similar results. Data was analysed and presented using Prism software.

Q: What does the source list for CNC(=O)[C@H](CCCCNC(=O)[C@H]1NC(=O)[C@H]2NC(=O)[C@H](NC(=O)[C@@H]3NC(=O)[C@H](CC(N)=O)NC(=O)[C@H](NC(=O)[C@@H](CC(C)C)NC)[C@H](O)c4ccc(c(Cl)c4)Oc4cc3cc(c4O[C@@H]3O[C@H](CO)[C@@H](O)[C@H](O)[C@H]3O[C@H]3C[C@](C)(N)[C@H](O)[C@H](C)O3)Oc3ccc(cc3Cl)[C@H]2O)c2ccc(O)c(c2)-c2c(O)cc(O)cc21)NC(=O)[C@H](CCCCN)NC(=O)[C@H](CCCCN)NC(=O)[C@H](CCCCNC(=O)c1ccc(Oc2ccccc2)cc1)NC(=O)c1ccc(Oc2ccccc2)cc1 [Compound 24, POB2K-KK-K(Vancomycin)-NHMe]?
A: CC50 at 24 h (Cytotoxicity MTT assay [1]): 140 µM; MIC MSSA ([2]; ATCC 29213): ≤0.016 µg/mL; MIC S. aureus ATCC29213 MSSA, PP ([2]; ATCC 29213): 1 µg/mL (≈ 0.422 µM); MIC S. aureus ATCC29213 MSSA, PS ([2]; ATCC 29213): 2 µg/mL (≈ 0.845 µM); MIC S. aureus ATCC29213 MSSA, PS+P-80 ([2]; ATCC 29213): 0.031 µg/mL (≈ 0.0131 µM); MIC VRSA ([3]; S. aureus NARSA VRS4): 0.08 µg/mL (≈ 0.0338 µM); CC50 at 24 h (Cytotoxicity MTT assay [4]): 100 µM; MIC S. aureus ATCC 43300 MRSA, NBS [5]: ≤ 0.016 µg/mL; MIC S. aureus ATCC 43300 MRSA, PP [5]: 1 µg/mL (≈ 0.422 µM); MIC S. aureus ATCC 43300 MRSA, PS [5]: 2 µg/mL (≈ 0.845 µM); MIC S. aureus ATCC 43300 MRSA, PS+P-80 [5]: ≤ 0.016 µg/mL; Membrane permeabilisation (propidium iodide fluorescence) (S. aureus ATCC 43300): comparable fluorescence intensity to oritavancin

Q: Which CC50 at 24 h (Cytotoxicity MTT assay [1]; 24 h, MTT, 1% FBS, read-out: Cytotoxicity CC50 HEK293) does the source give for CN[C@H](CC(C)C)C(=O)N[C@H]1C(=O)N[C@@H](CC(N)=O)C(=O)N[C@H]2C(=O)N[C@H]3C(=O)N[C@H](C(=O)N[C@H](C(=O)O)c4cc(O)cc(O)c4-c4cc3ccc4O)[C@H](O)c3ccc(c(Cl)c3)Oc3cc2cc(c3O[C@@H]2O[C@H](CO)[C@@H](O)[C@H](O)[C@H]2O[C@H]2C[C@](C)(N)[C@H](O)[C@H](C)O2)Oc2ccc(cc2Cl)[C@H]1O [Compound 1, Vancomycin] here?
A: 5900 µM

Q: What about the MIC ([2]; read-out: MIC MSSA) of the same compound?
A: 1 µg/mL (≈ 0.69 µM)

Q: And the MIC ([2]; read-out: MIC S. aureus ATCC29213 MSSA, NBS)?
A: 1 µg/mL (≈ 0.69 µM)

Q: And the MIC ([2]; read-out: MIC S. aureus ATCC29213 MSSA, PP)?
A: 1 µg/mL (≈ 0.69 µM)

Q: What about the MIC ([2]; read-out: MIC S. aureus ATCC29213 MSSA, PS) of the same compound?
A: 2 µg/mL (≈ 1.38 µM)

Q: What about the MIC ([2]; read-out: MIC S. aureus ATCC29213 MSSA, PS+P-80) of the same compound?
A: 1 to 2 µg/mL (≈ 0.69 to 1.38 µM)

Q: And the MIC ([3]; Staphylococcus aureus, VRSA, read-out: MIC VRSA)?
A: > 64 µg/mL

Q: And the CC50 at 24 h (Cytotoxicity MTT assay [4]; 24 h, MTT, 1% FBS, read-out: Cytotoxicity CC50 HepG2)?
A: 6300 µM

Q: What about the MIC ([5]; 24 h, read-out: MIC MRSA, S. aureus ATCC 43300, NBS plates, MHB, 24 h, substance alone) of the same compound?
A: 1 µg/mL (≈ 0.69 µM)

Q: What about the MIC ([5]; read-out: MIC S. aureus ATCC 43300 MRSA, NBS, non-binding surface plate) of the same compound?
A: 1 µg/mL (≈ 0.69 µM)

Q: And the MIC ([5]; read-out: MIC S. aureus ATCC 43300 MRSA, PP, polypropylene plate)?
A: 2 µg/mL (≈ 1.38 µM)

Q: What about the MIC ([5]; read-out: MIC S. aureus ATCC 43300 MRSA, PS+P-80, polystyrene plate with 0.002% polysorbate-80) of the same compound?
A: 2 µg/mL (≈ 1.38 µM)

Q: What about the MIC ([5]; read-out: MIC S. aureus ATCC 43300 MRSA, PS, polystyrene plate, no polysorbate-80) of the same compound?
A: 2 µg/mL (≈ 1.38 µM)

Q: What about the “Membrane permeabilisation (propidium iodide fluorescence)” value (S. aureus ATCC 43300; 16 µg mL^−1, 1 h, MRSA ATCC 43300) of the same compound?
A: little to no effect

Q: Which results are given for CCCCCCCCCCC(=O)N[C@@H](CCCCN)C(=O)N[C@@H](CCCCN)C(=O)N[C@@H](CCCCNC(=O)[C@H]1NC(=O)[C@H]2NC(=O)[C@H](NC(=O)[C@@H]3NC(=O)[C@H](CC(N)=O)NC(=O)[C@H](NC(=O)[C@@H](CC(C)C)NC)[C@H](O)c4ccc(c(Cl)c4)Oc4cc3cc(c4O[C@@H]3O[C@H](CO)[C@@H](O)[C@H](O)[C@H]3O[C@H]3C[C@](C)(N)[C@H](O)[C@H](C)O3)Oc3ccc(cc3Cl)[C@H]2O)c2ccc(O)c(c2)-c2c(O)cc(O)cc21)C(=O)O [Compound 19, nC10CO-KK-K(Vancomycin)-OH]?
A: CC50 at 24 h (Cytotoxicity MTT assay [1]): 355 µM; MIC S. aureus ATCC29213 MSSA, NBS ([2]; ATCC 29213): ≤ 0.016 µg/mL; MIC S. aureus ATCC29213 MSSA, PP ([2]; ATCC 29213): 0.125 to 0.25 µg/mL; MIC S. aureus ATCC29213 MSSA, PS ([2]; ATCC 29213): 0.03 to 0.06 µg/mL; MIC S. aureus ATCC29213 MSSA, PS+P-80 ([2]; ATCC 29213): 0.031 µg/mL (≈ 0.0155 µM); MIC VRSA ([3]; Vancomycin-resistant NARSA VRS4): 1 µg/mL (≈ 0.499 µM); CC50 at 24 h (Cytotoxicity MTT assay [4]): 290 µM; MIC S. aureus ATCC 43300 MRSA, NBS [5]: ≤ 0.016 µg/mL; MIC S. aureus ATCC 43300 MRSA, PP [5]: 0.06 to 0.125 µg/mL; MIC S. aureus ATCC 43300 MRSA, PS [5]: 0.063 µg/mL (≈ 0.0315 µM); MIC S. aureus ATCC 43300 MRSA, PS+P-80 [5]: 0.063 µg/mL (≈ 0.0315 µM); MIC MRSA ([5]; ATCC 43300, 24 h): 0.03 µg/mL (≈ 0.015 µM); Membrane permeabilisation (propidium iodide fluorescence) (S. aureus ATCC 43300): little to no effect
